Source: ChEMBL document CHEMBL1629470, “Synthesis, biological evaluation and docking studies of 4-amino-tetrahydroquinazolino[3,2-e]purine derivatives” (Eur J Med Chem, 2010)

Experiments:
L1210 = experiment: Cytotoxicity against mouse L1210 cells after 4 hrs by MTT assay; format: functional
[1] = molecular target: Proto-oncogene tyrosine-protein kinase Src (Homo sapiens) (UniProt P12931); experiment: Inhibition of Src at 10 uM after 20 mins
Chain of Proto-oncogene tyrosine-protein kinase Src (Homo sapiens) (P12931 2-536 limits assumed): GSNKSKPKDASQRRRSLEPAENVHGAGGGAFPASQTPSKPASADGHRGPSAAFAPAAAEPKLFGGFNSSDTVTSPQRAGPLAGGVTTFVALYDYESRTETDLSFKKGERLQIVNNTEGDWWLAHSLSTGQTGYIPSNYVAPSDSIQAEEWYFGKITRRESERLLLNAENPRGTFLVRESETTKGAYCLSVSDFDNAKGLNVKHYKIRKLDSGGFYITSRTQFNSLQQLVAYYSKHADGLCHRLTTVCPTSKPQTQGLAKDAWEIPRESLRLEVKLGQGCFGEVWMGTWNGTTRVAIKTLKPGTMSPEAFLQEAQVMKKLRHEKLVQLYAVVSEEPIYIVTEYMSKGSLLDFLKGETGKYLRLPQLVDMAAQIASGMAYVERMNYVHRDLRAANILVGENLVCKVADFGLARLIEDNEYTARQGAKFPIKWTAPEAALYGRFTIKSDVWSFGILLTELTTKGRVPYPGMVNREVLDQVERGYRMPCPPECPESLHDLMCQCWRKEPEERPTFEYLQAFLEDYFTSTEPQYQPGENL

Structure (SMILES) | inhibition [1] [%] | Activity (L1210) [µM]
CCN(CC)CCN1c2ccccc2Cn2c1nc1c(Nc3ccccc3)ncnc12.Cl | 0 | 17.9
Nc1nc(Cl)nc2c1nc1n2Cc2ccccc2N1 | 49 | 23
Cl.Clc1ccccc1Nc1ncnc2c1nc1n2Cc2ccccc2N1CCN1CCOCC1 | 20 | 11.9
Cl.c1ccc(CNc2ncnc3c2nc2n3Cc3ccccc3N2CCN2CCOCC2)cc1 | 9 | 31
Brc1ccccc1Nc1ncnc2c1nc1n2Cc2ccccc2N1CCN1CCOCC1.Cl | 30 | 21.9

More lines, main results first:

inhibition [1] [%] | Structure (SMILES) | Activity (L1210) [µM]
58 | c1ccc(Nc2ncnc3c2nc2n3Cc3ccccc3N2)cc1 | 34.3
72 | Nc1ncnc2c1nc1n2Cc2ccccc2N1 | 7.3
15 | Cl.c1ccc(Nc2ncnc3c2nc2n3Cc3ccccc3N2CCN2CCOCC2)cc1 | 16.1
